Assay results reported in the NIST ThermoML archive (doi:10.1016/j.jct.2012.09.017).
Numbers after ± are expanded uncertainties.

Assays:
[1] = 101.33 kPa, Liquid, Vibrating tube method
[2] = activity coefficient (dimensionless); of the first substance listed, at infinite dilution; xn = mol fraction of the nth substance listed; details: 101 kPa, Liquid, Chromatography, x1 = 0

SMILES | activity coefficient ([2]; 318.15 K) | activity coefficient ([2]; 323.15 K) | activity coefficient ([2]; 333.15 K) | activity coefficient ([2]; 343.15 K) | activity coefficient ([2]; 353.15 K) | activity coefficient ([2]; 363.15 K) | activity coefficient ([2]; 373.15 K) | further results
CCCC[N+]1(C)CCCC1.O=C1O[B-]2(OC1=O)OC(=O)C(=O)O2 [1-butyl-1-methylpyrrolidinium bis(oxalato)borate] | – | – | – | – | – | – | – | mass density ([1]; 328.15 K): 1235.34 ± 0.44 kg/m3; mass density ([1]; 333.15 K): 1231.29 ± 0.44 kg/m3; mass density ([1]; 338.15 K): 1227.23 ± 0.43 kg/m3; mass density ([1]; 343.15 K): 1223.19 ± 0.43 kg/m3; mass density ([1]; 348.15 K): 1219.17 ± 0.43 kg/m3; mass density ([1]; 353.15 K): 1215.17 ± 0.42 kg/m3
CCCC[N+]1(C)CCCC1.N#C[B-](C#N)(C#N)C#N [1-butyl-1-methylpyrrolidinium tetracyanoborate] | – | – | – | – | – | – | – | mass density ([1]; 283.15 K): 986.48 ± 0.29 kg/m3; mass density ([1]; 293.15 K): 979.5 ± 0.29 kg/m3; mass density ([1]; 303.15 K): 972.59 ± 0.29 kg/m3; mass density ([1]; 313.15 K): 965.77 ± 0.29 kg/m3; mass density ([1]; 323.15 K): 959.04 ± 0.29 kg/m3; mass density ([1]; 333.15 K): 952.4 ± 0.29 kg/m3; mass density ([1]; 343.15 K): 945.83 ± 0.29 kg/m3
C=CCCCCCC [oct-1-ene] + CCCC[N+]1(C)CCCC1.N#C[B-](C#N)(C#N)C#N | 15.8 ± 0.8 | 15.4 ± 0.8 | 14.7 ± 0.8 | 14 ± 0.7 | 13.4 ± 0.7 | – | – | –
C=CCCCCCC [oct-1-ene] + CCCC[N+]1(C)CCCC1.O=C1O[B-]2(OC1=O)OC(=O)C(=O)O2 | – | – | 41.4 ± 2.1 | 37.5 ± 1.9 | 34.3 ± 1.8 | 31.5 ± 1.6 | 29.3 ± 1.5 | –
CCCCCCCC [octane] + CCCC[N+]1(C)CCCC1.N#C[B-](C#N)(C#N)C#N | 33.2 ± 1.7 | 31.8 ± 1.6 | 29.4 ± 1.5 | 27.4 ± 1.4 | 25.6 ± 1.3 | – | – | –
CCCCCCCC [octane] + CCCC[N+]1(C)CCCC1.O=C1O[B-]2(OC1=O)OC(=O)C(=O)O2 | – | – | 88.8 ± 4.6 | 77.7 ± 4 | 69.3 ± 3.6 | 61.9 ± 3.2 | 56.1 ± 2.9 | –
CCCO [propan-1-ol] + CCCC[N+]1(C)CCCC1.N#C[B-](C#N)(C#N)C#N | 1.53 ± 0.07 | 1.46 ± 0.07 | 1.34 ± 0.06 | 1.24 ± 0.06 | 1.15 ± 0.05 | – | – | –
CCCO [propan-1-ol] + CCCC[N+]1(C)CCCC1.O=C1O[B-]2(OC1=O)OC(=O)C(=O)O2 | – | – | 2.56 ± 0.13 | 2.3 ± 0.12 | 2.08 ± 0.11 | 1.9 ± 0.1 | 1.76 ± 0.09 | –
CC(C)O [propan-2-ol] + CCCC[N+]1(C)CCCC1.N#C[B-](C#N)(C#N)C#N | – | – | 1.35 ± 0.06 | 1.25 ± 0.06 | 1.16 ± 0.05 | – | – | –
CC(C)O [propan-2-ol] + CCCC[N+]1(C)CCCC1.O=C1O[B-]2(OC1=O)OC(=O)C(=O)O2 | – | – | – | – | – | 1.98 ± 0.1 | 1.83 ± 0.09 | –
ClC(Cl)(Cl)Cl [tetrachloromethane] + CCCC[N+]1(C)CCCC1.N#C[B-](C#N)(C#N)C#N | 2.4 ± 0.12 | 2.41 ± 0.12 | 2.43 ± 0.12 | 2.45 ± 0.13 | 2.47 ± 0.13 | – | – | –
ClC(Cl)(Cl)Cl [tetrachloromethane] + CCCC[N+]1(C)CCCC1.O=C1O[B-]2(OC1=O)OC(=O)C(=O)O2 | – | – | 4.23 ± 0.22 | 4.14 ± 0.21 | 4.07 ± 0.21 | 4 ± 0.21 | 3.95 ± 0.2 | –
C1CCOC1 [tetrahydrofuran] + CCCC[N+]1(C)CCCC1.N#C[B-](C#N)(C#N)C#N | 0.622 ± 0.033 | 0.632 ± 0.033 | 0.65 ± 0.034 | 0.667 ± 0.034 | 0.683 ± 0.034 | – | – | –
C1CCOC1 [tetrahydrofuran] + CCCC[N+]1(C)CCCC1.O=C1O[B-]2(OC1=O)OC(=O)C(=O)O2 | – | – | 1.13 ± 0.05 | 1.14 ± 0.05 | 1.15 ± 0.05 | 1.15 ± 0.05 | 1.16 ± 0.05 | –
c1ccsc1 [thiophene] + CCCC[N+]1(C)CCCC1.N#C[B-](C#N)(C#N)C#N | 0.681 ± 0.034 | 0.688 ± 0.035 | 0.703 ± 0.035 | 0.718 ± 0.035 | 0.733 ± 0.036 | – | – | –
c1ccsc1 [thiophene] + CCCC[N+]1(C)CCCC1.O=C1O[B-]2(OC1=O)OC(=O)C(=O)O2 | – | – | 1.13 ± 0.05 | 1.12 ± 0.05 | 1.12 ± 0.05 | 1.13 ± 0.05 | 1.13 ± 0.05 | –
Cc1ccccc1 [toluene] + CCCC[N+]1(C)CCCC1.N#C[B-](C#N)(C#N)C#N | 1.13 ± 0.05 | 1.15 ± 0.05 | 1.17 ± 0.05 | 1.19 ± 0.05 | 1.22 ± 0.06 | – | – | –
Cc1ccccc1 [toluene] + CCCC[N+]1(C)CCCC1.O=C1O[B-]2(OC1=O)OC(=O)C(=O)O2 | – | – | 2.57 ± 0.13 | 2.52 ± 0.13 | 2.47 ± 0.13 | 2.43 ± 0.12 | 2.4 ± 0.12 | –
ClC(Cl)Cl [trichloromethane] + CCCC[N+]1(C)CCCC1.N#C[B-](C#N)(C#N)C#N | 0.609 ± 0.033 | 0.623 ± 0.033 | 0.654 ± 0.034 | 0.683 ± 0.034 | 0.711 ± 0.035 | – | – | –
ClC(Cl)Cl [trichloromethane] + CCCC[N+]1(C)CCCC1.O=C1O[B-]2(OC1=O)OC(=O)C(=O)O2 | – | – | 1 ± 0.04 | 1.03 ± 0.05 | 1.06 ± 0.05 | 1.08 ± 0.05 | 1.11 ± 0.05 | –
